Assay results: US20120083464A1, “NEUROPROTECTIVE PROPERTIES OF 5'-METHYLTHIOADENOSINE” (priority 2009, published 2012)
Entries after “also recorded” stand apart in the source; their conditions may differ.

Columns and labels:
[1] = tested on: mixed cultures of neurons and astrocytes obtained from the cerebral cortex; assay: Oxygen-glucose deprivation (simulated ischemia) in neuron-astrocyte co-cultures; assay type: cell-based, Sprague-Dawley rat
From the text: Primary neuron cultures were obtained from the cortical lobes of E18 Sprague-Dawley rat embryos according to previously described procedures (Cheung et al., 1998, Neuropharmacology 37:1419-1429). The cells were resuspended in B27 Neurobasal medium plus 10% FBS and then seeded in 24-well plates at 1-2×10^5 cells per well onto a monolayer of astrocytes which were previously prepared as described earlier (Vallejo-Illarramendi et al., 2005, Glia 50:276-279). One day later, the medium was replaced by B27-supplemented Neurobasal medium and 10% fetal bovine serum, and maintained at 37° C. and 5% CO2. Cultures were used 8-9 days after plating. Cultured neurons and astrocytes were identified using antibodies to microtubule associated protein-2 and glial fibrillary acidic protein, respectively.
Ischemic damage was induced by incubating cell cultures in a hyperbaric chamber for 1 hour in nitrogen-saturated buffer containing NaCl 130 mM, KCl 5.4 mM, CaCl2 0.1323 mM, […], MgCl2 0.8 mM, NaH2PO4 1.18 mM, 10 mM sucrose as a substitute of glucose, and the glyocolytic blocker iodoacetate (20 or 50 μM). After the insult, cells were incubated in normoxia, glucose added and iodoacetate removed for an additional period of 24 hours. […] The results are expressed as the mean±SEM of at least four independent experiments performed in triplicate.

[2] = tested on: RN22 cells; assay: Hydrogen peroxide stress in RN22 cells, ROS levels; assay type: cell-based, rat; conditions: hydrogen peroxide 100 μM, different time periods
Description: RN22 cells were maintained at 37° C. in DMEM medium supplemented with 10% of fetal bovine serum and penicillin/streptomycine. The assays against stress with copper sulphate were conducted using 24-well plates in DMEM medium without serum. After allowing cell adherence for three days, NGF (100 ng/ml) or MTA was added to different concentrations half an hour before the copper sulphate (150 μM). After twenty-four hours, cell viability was quantified by MTT assay and ROS production was quantified by fluorescence. Assays against stress with hydrogen peroxide were conducted in the same way as the foregoing, using 100 μM hydrogen peroxide as a stress-producing agent.
We determined the quantity of ROS produced by the cells after stress with and without treatment. 2′,7′- dichlorodihydrofluorescein (DCFH) is generally used to measure oxidative stress in cells. The cells were incubated with DCFH-DA (10 μM) at 37° C. for thirty minutes. After incubation, the cells were washed twice with PBS and lysed by adding 10 mM Tris-HCL buffer containing 0.5% of Tween 20. The homogenates were then centrifuged at 10,000 g for ten minutes to separate the cell residue and […] fluorescence in the supernatant was measured using a fluorometer (excitation wavelength 492-495 nm, emission wavelength 517-527 nm) (Invitrogen).

[3] = tested on: caspase 3 activity; assay: NMDA-mediated increase in caspase 3 activity in mixed neuronal-glial culture; assay type: cell-based, Sprague-Dawley rat; conditions: NMDA 300 μM, MTA 250 μM or MK-801 10 μM
Description: Primary cultures of brain cortical neurons and glia were essentially prepared as described previously (Bruno et al., 2001, Eur. J. Neurosci., 13:1469-1478). The fronto-lateral cortical lobes were dissected out of Sprague-Dawley embryonic day 17 foetuses and were mechanically dissociated in Hanks' balanced solution. The cortical lobes were triturated by aspirating 7-10 times using a Pasteur pipette with a flame-narrowed tip. […]
Cortical neurons or mixed cortical neurons and glia were plated on poly-L-lysine-coated 6-well culture plates and after 7 DIV, cells were treated with vehicle or NMDA (300 μM) for different periods of time. […] Extracts were then centrifuged at 5,000×g for 10 min at 4° C., and protein content was determined by using the BCA protein assay according to the manufacturer instructions. Cell extracts (40 μg of protein) were incubated in reaction buffer (25 mM Hepes, 10% sucrose, 0.1% CHAPS, 10 mM DTT) containing 50 μM fluorescence substrate Z-DEVD-AFC at 37° C. for 1 h. Cleavage of the AFC fluorophore was determined in a spectrofluorometer at excitation wavelength of 400 nm and fluorescence was detected at an emission wavelength of 505 nm. Caspase 3 activity was expressed as units of fluorescence/mg of protein/h (Posadas et al., 2009, Pharm. Res., In press).

[4] = tested on: isolated optic nerve; assay: Simulated ischemia (OGD) in isolated optic nerves, LDH release; design: species or system Sprague Dawley rats; conditions: 1 h ischemia with iodoacetate + 2 h reperfusion; MTA 100-300 μM
Description: Ischemic damage was induced by substituting […] and adding 1 mM of the glyocolytic blocker iodoacetate (1 mM) for 1 h followed by 2 h of reperfusion in […] aCSF. Optic nerves during ischemia and reperfusion were incubated with vehicle, for controls, and with MTA or glutamate receptor antagonists, and subsequently processed for LDH release assay. The results are the mean±SEM of at least three different experiments performed in duplicate.
Cell viability in oligodendrocyte cultures was assayed after 24 h of exposure to MTA (1 μM to 3 mM) calcein-AM assays respectively followed by fluorimetry measurements (Synergy-HT). Oligodendrocyte protection from excitotoxicity and optic nerve damage after ischemia (1 hour+2 hours reperfusion) were examined using lactate dehydrogenase release assays in the presence or absence of MTA (100-300 μM for 3 hours).

In the case of `CSC[C@H]1O[C@@H](n2cnc3c(N)ncnc32)[C@H](O)[C@@H]1O` [MTA, 5′-methylthioadenosine], the “protection from OGD-induced damage compared with APV (50 μM)” value ([1]; MTA at 10 μM) is reported as “even more protective than APV”, the “protection from OGD (ischemia)-induced damage” value ([1]; OGD 1 hour with IAA at 20 or 50 μM, both conditions, assayed 24 hours later) is reported as “highly protective” and the “ROS production under hydrogen peroxide stress” value [2] is reported as “capable of reducing ROS production”. For the same molecule, the “protection against NMDA-induced caspase 3 activity” value [3] was “blockade of caspase 3 activation; also recorded: protection” and the “OGD/ischemia-induced damage in isolated optic nerve (LDH release)” value [4] was “similarly protective”.
